Laboratory results taken from ChEMBL document CHEMBL5523740, “Discovery of Potent and Selective c-Met Degraders for Hepatocellular Carcinoma Treatment” (J Med Chem, 2024).

Legend:
[1] = system: MHCC97H; assay: Antiproliferative activity against human MHCC97H cells incubated for 24 hrs by CCK8 assay; format: functional, cell-based
[2] = target: Hepatocyte growth factor receptor (Homo sapiens, UniProt P08581); assay: Induction of c-Met degradation in human MHCC97H cells at 1 uM incubated for 24 hrs by Western blotting analysis; format: cell-based
Hepatocyte growth factor receptor, sequence (P08581 whole entry, the tested form may be a part): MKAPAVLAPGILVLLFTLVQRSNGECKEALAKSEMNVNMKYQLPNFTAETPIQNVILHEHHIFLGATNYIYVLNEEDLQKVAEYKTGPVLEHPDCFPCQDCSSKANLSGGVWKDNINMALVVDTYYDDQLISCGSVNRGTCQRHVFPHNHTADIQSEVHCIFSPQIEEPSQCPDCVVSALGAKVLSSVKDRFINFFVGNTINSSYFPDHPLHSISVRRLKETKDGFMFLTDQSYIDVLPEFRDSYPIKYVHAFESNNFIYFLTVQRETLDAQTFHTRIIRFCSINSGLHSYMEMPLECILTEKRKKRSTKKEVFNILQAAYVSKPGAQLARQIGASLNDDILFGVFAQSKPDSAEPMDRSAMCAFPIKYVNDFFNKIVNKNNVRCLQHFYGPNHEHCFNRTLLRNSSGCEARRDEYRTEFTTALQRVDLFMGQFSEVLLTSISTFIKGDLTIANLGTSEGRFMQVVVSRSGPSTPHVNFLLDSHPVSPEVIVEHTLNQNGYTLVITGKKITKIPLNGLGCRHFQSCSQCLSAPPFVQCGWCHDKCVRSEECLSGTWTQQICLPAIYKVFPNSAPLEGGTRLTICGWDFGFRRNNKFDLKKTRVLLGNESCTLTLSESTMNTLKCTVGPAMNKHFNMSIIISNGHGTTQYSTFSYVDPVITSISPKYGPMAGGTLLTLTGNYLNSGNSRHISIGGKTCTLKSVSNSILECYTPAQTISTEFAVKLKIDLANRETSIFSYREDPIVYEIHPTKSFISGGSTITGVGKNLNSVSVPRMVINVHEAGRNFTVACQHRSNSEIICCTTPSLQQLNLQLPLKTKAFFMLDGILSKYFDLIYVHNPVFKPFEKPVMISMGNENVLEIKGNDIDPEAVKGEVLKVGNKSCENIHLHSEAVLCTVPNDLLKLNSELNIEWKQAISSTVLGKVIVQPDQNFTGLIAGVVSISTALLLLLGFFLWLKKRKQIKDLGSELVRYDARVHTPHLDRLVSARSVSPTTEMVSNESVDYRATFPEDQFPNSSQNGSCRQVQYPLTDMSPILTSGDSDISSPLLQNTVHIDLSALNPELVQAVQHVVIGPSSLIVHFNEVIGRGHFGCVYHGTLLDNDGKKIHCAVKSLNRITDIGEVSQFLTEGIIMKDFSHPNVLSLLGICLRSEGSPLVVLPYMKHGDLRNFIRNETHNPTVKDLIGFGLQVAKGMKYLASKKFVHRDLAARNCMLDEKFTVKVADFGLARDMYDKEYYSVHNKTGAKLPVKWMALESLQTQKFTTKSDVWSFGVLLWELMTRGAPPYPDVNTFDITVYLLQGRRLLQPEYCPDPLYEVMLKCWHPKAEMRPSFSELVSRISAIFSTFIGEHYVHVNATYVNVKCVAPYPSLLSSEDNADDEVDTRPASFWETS

[3] = system: BaF3; assay: Antiproliferative activity against mouse BaF3 cells harboring TPR-MET fusion protein incubated for 72 hrs by CellTiter-Glo reagent based assay; format: functional, cell-based; conditions: BaF3, 72 h
[4] = system: MHCC97H; assay: Induction of apoptosis in human MHCC97H cells assessed as viable cells at 3 nM incubated for 24 hrs by Annexin-V-FITC/PI staining based flow cytometry analysis (reference value: 86.3%); format: functional; conditions: read-out: Activity
[5] = Toxicity in BALB/c mouse xenografted with human MHCC97H cells assessed as reduction in body weight at 20 mg/kg, po qd for 22 days and measured every 2 days; format: organism-based; conditions: in vivo, 528 h, time 22 day
[6] = system: MHCC97H; assay: Induction of apoptosis in human MHCC97H cells assessed as necrotic cells at 3 nM incubated for 24 hrs by Annexin-V-FITC/PI staining based flow cytometry analysis (reference value: 1.77%); format: functional
[7] = Toxicity in BALB/c mouse xenografted with human MHCC97H cells assessed as kidney lesions at 20 mg/kg, po qd for 22 days and measured every 2 days by H and E staining based assay; format: organism-based; conditions: in vivo, 528 h, time 22 day
[8] = system: BaF3; assay: Antiproliferative activity against mouse BaF3 cells harboring TPR-MET Y1230H mutant fusion protein incubated for 72 hrs by CellTiter-Glo reagent based assay; format: functional, cell-based; conditions: BaF3, 72 h
[9] = system: MHCC97H; assay: Induction of cell cycle arrest in human MHCC97H cells assessed as accumulation of cells at G1 phase at 3 nM incubated for 24 hrs by PI staining based flow cytometry analysis (reference value: 70.4%); format: functional
[10] = Toxicity in BALB/c mouse xenografted with human MHCC97H cells assessed as liver lesions at 20 mg/kg, po qd for 22 days and measured every 2 days by H and E staining based assay; format: organism-based; conditions: in vivo, 528 h, time 22 day
[11] = system: MHCC97H; assay: Induction of cell cycle arrest in human MHCC97H cells assessed as accumulation of cells at G2 phase at 3 nM incubated for 24 hrs by PI staining based flow cytometry analysis (reference value: 19.1%); format: functional
[12] = system: MHCC97H; assay: Induction of apoptosis in human MHCC97H cells assessed as late apoptotic cells at 3 nM incubated for 24 hrs by Annexin-V-FITC/PI staining based flow cytometry analysis (reference value: 4.24%); format: functional
[13] = system: MHCC97H; assay: Induction of apoptosis in human MHCC97H cells assessed as early apoptotic cells at 3 nM incubated for 24 hrs by Annexin-V-FITC/PI staining based flow cytometry analysis (reference value: 7.70%); format: functional
[14] = system: BaF3; assay: Antiproliferative activity against mouse BaF3 cells harboring TPR-MET D1228N mutant fusion protein incubated for 72 hrs by CellTiter-Glo reagent based assay; format: functional, cell-based; conditions: BaF3, 72 h
[15] = Toxicity in BALB/c mouse xenografted with human MHCC97H cells assessed as heart lesions at 20 mg/kg, po qd for 22 days and measured every 2 days by H and E staining based assay; format: organism-based; conditions: in vivo, 528 h, time 22 day
[16] = Toxicity in BALB/c mouse xenografted with human MHCC97H cells assessed as lung lesions at 20 mg/kg, po qd for 22 days and measured every 2 days by H and E staining based assay; format: organism-based; conditions: in vivo, 528 h, time 22 day
[17] = system: MHCC97H; assay: Antitumor activity against human MHCC97H cells xenografted in BALB/c mouse assessed as tumor growth inhibition at 20 mg/kg, po qd for 22 days and measured every 2 days; format: functional; conditions: 528 h, time 22 day, read-out: TGI
[18] = Toxicity in BALB/c mouse xenografted with human MHCC97H cells assessed as spleen lesions at 20 mg/kg, po qd for 22 days and measured every 2 days by H and E staining based assay; format: organism-based; conditions: in vivo, 528 h, time 22 day

Structure (SMILES)	IC50 [1]	Activity [2]	also measured
N#Cc1cccc(-c2ccc(=O)n(Cc3cccc(-c4ncc(OCC5CCN(CCNC(=O)CC67CC8CC(CC(C8)C6)C7)CC5)cn4)c3)n2)c1	22.9 nM	11.1%	
N#Cc1cccc(-c2ccc(=O)n(Cc3cccc(-c4ncc(OCC5CCN(CCCC(=O)NCC67CC8CC(CC(C8)C6)C7)CC5)cn4)c3)n2)c1	11.8 nM	40.5%	
N#Cc1cccc(-c2ccc(=O)n(Cc3cccc(-c4ncc(OCC5CCN(C(=O)CC6c7ccccc7-c7ccccc76)CC5)cn4)c3)n2)c1	935 nM	15.8%	
N#Cc1cccc(-c2ccc(=O)n(Cc3cccc(-c4ncc(OCC5CCN(CC(=O)NCC6CC7C=CC6C7)CC5)cn4)c3)n2)c1 (stereo unspecified)	73.6 nM	50.2%	
N#Cc1cccc(-c2ccc(=O)n(Cc3cccc(-c4ncc(OCC5CCN(CC(=O)NCCCCCCNC(=O)CC67CC8CC(CC(C8)C6)C7)CC5)cn4)c3)n2)c1	200 nM	< 10%	
N#Cc1cccc(-c2ccc(=O)n(Cc3cccc(-c4ncc(OCC5CCN(CC(=O)NCCCCCCCCCCNC(=O)CC67CC8CC(CC(C8)C6)C7)CC5)cn4)c3)n2)c1	155 nM	< 10%	
N#Cc1cccc(-c2ccc(=O)n(Cc3cccc(-c4ncc(OCC5CCN(CC(=O)NCCCCNC(=O)CC67CC8CC(CC(C8)C6)C7)CC5)cn4)c3)n2)c1	139 nM	< 10%	
CC(C)[C@@H]1CC[C@@H](C)C[C@H]1OCC(=O)N1CCC(COc2cnc(-c3cccc(Cn4nc(-c5cccc(C#N)c5)ccc4=O)c3)nc2)CC1	258 nM	35.8%	
CN1CCC(COc2cnc(-c3cccc(Cn4nc(-c5cccc(C#N)c5)ccc4=O)c3)nc2)CC1 [TEPOTINIB]	3.66 nM		IC50 [3]: 5.3 nM; viability at 0.003 µM [4]: 79.6%; Activity [5]: Non-Toxic; Activity [6]: 2.57%; Activity [7]: Non-Toxic; IC50 [8]: 1840 nM; Activity [9]: 73.7%; Activity [10]: Non-Toxic; Activity [11]: 16.6%; Activity [12]: 3.84%; Activity [13]: 13.9%; IC50 [14]: 2030 nM; Activity [15]: Non-Toxic; Activity [16]: Non-Toxic; inhibition in vivo at 20 mg/kg [17]: 58.8%; Activity [18]: Non-Toxic
N#Cc1cccc(-c2ccc(=O)n(Cc3cccc(-c4ncc(OCC5CCN(CC(=O)NCCCCCCCCNC(=O)CC67CC8CC(CC(C8)C6)C7)CC5)cn4)c3)n2)c1	156 nM	< 10%	
N#Cc1cccc(-c2ccc(=O)n(Cc3cccc(-c4ncc(OCC5CCN(C(=O)CC(c6ccccc6)c6ccccc6)CC5)cn4)c3)n2)c1	128 nM	< 10%	
N#Cc1cccc(-c2ccc(=O)n(Cc3cccc(-c4ncc(OCC5CCN(CC(=O)NCCNC(=O)CC67CC8CC(CC(C8)C6)C7)CC5)cn4)c3)n2)c1	40.2 nM	22.4%	
N#Cc1cccc(-c2ccc(=O)n(Cc3cccc(-c4ncc(OCC5CCN(C(=O)CC67CC8CC(CC(C8)C6)C7)CC5)cn4)c3)n2)c1	67.2 nM	67.4%	
